Laboratory results from EP0212822A1, “A composition containing a plant growth regulator and an alkanol and a method of using the same” (ICI AMERICAS INC., priority 1985, dated 1987).

Columns and labels:
[1] = Absorption kinetics: binding of 14C-labelled compound to sawdust; type: physicochemical, Betula pendula-Roth (Birch); conditions: for µg in solution: 2 gm sawdust, 20 ml water, 10 mg/l 14C (II)
Method: This example illustrates the binding (absorption) properties of the PGR of this invention to wood of the-conducting tissue of Betula pendula-Roth (Birch). The compounds of this invention preferably show partial and reversible binding which enhances the slow release effect by initial precipitation in the trunk. Sawdust samples were obtained from the outer wood of freshly cut, debarked logs. 2 gm samples of sawdust were shaken with 20 ml water containing ^14C triazole-labelled (II) at a concentration of 10 mg 1^-1. At intervals, the aqueous phase was subsampled, and the concentration of (II) determined by scintillation counting. A decrease in concentration reflects binding to the wood, expressed as kd (ratio of chemical bound to wood:chemical in solution).

[2] = Solubility in methanol water mixtures (HPLC and UV absorption); type: physicochemical
Method: An excess of compound of formula (II) was shaken with methanol water mixtures for a minimum of 4 hours. Samples were passed through a micropore filter to remove undissolved solid, and then centrifuged to remove any emulsified material. The resulting saturated solutions were analyzed by both HPLC and UV absorption against known standard solutions. […] In water alone, solubility is only 35 mg 1^-1 (ppm). Thus, formulations of formula (II) in methanol are low in viscosity when injected, and the PGR will rapidly precipitate within the trunk as the methanol becomes diluted with transpiration water.

Malus communis (Apple) = assay: Trunk injection, percent of growth based upon a control; type: in vivo; conditions: 35 days after treatment
Method: (§1) The examples which follow exemplify the improvements obtained by this invention. However, these examples are not intended to limit the scope of the invention. In Examples 1-41, the subject trees were injected at a distance approximately one foot from the soil line by drilling 7/32 inch diameter holes to a 2 inch depth at a 30-45° angle tangential to the trunk with a pressure injector (150 psi) purchased from the Asplundh Tree Expert Co., Company No. 346-3502. The results are expressed in terms of Retardation and Uniformity Ratings. The Retardation rating scale is as follows: • 0 = no retardataion • 1 = 1-20% retardation • 2 = 21-40% retardation • 3 = 41-60% retardation • 4 = 61-80% retardation • 5 = 81-100% retardation
(2RS, 3RS)-1-(4-chlorophenyl-4,4-dimethyl-2,-1,2,4-triazol-1-yl)pentan-3-ol (PGR) was dissolved in 1 liter of solvent at room temperature and the resulting solution was stirred until clear, approximately 20 to 30 minutes. Two equal aliquots of the resulting solution were injected into two injection holes of the trunk of Malus communis (Apple) having a trunk diameter at the point of injection approximately 4 to 5 inches. The injection holes were approximately 12 inches above the soil surface. The percent of growth, based upon a control, was measured 35 days after treatment.

Water Oak = assay: Trunk injection, holes at 4 inch intervals, Retardation and Uniformity Ratings; type: in vivo, Quercus nigra (Water Oak); set-up: key to Uniformity Rating (U): 0 = no effect from PGR; 1 = poor; 2 = fair; 3 = acceptable; 4 = very good; 5 = excellent; conditions: 38 ml/hole
Method: as §1
(§2) The Uniformity Rating is a measure of the consistency of response to the treatment between different branches of the tree. The Uniformity scale employed is as follows: • 0 = no effect from PGR • 1 = poor • 2 = fair • 3 = acceptable • 4 = very good • 5 = excellent
(§3) 10 (0.034 moles), 20 (0.068 moles) and 40 grams (0.136 moles) of (2RS, 3RS)-1-(4-chlorophenyl)-4,4-dimethyl-2-l,2,4-triazol-l-yl)pentan-3-ol (PGR) were dissolved in 1,1 and 1 liter, respectively, of methanol at room temperature and was stirred until the solution was clear, approximately 20 to 60 minutes. In these examples, the injection holes were placed at approximate 4 inch intervals.

Willow Oak = assay: as above; type: in vivo, Quercus phellos (Willow Oak); set-up: key to Uniformity Rating (U): 0 = no effect from PGR; 1 = poor; 2 = fair; 3 = acceptable; 4 = very good; 5 = excellent; conditions: 38 ml/hole
Method: as §1, §2, §3

Sycamore = assay: Trunk injection, holes at 8 inch intervals, Retardation and Uniformity Ratings; type: in vivo, Platanus occidentalis (Sycamore); set-up: key to Uniformity Rating (U): 0 = no effect from PGR; 1 = poor; 2 = fair; 3 = acceptable; 4 = very good; 5 = excellent; conditions: 75 ml/hole
Method: as §1, §2
10 (0.034 moles), 20 (0.068 moles) and 40 grams (0.136 moles) of (2RS, 3RS)-1-(4-chlorophenyl)-4,4-dimethyl-2-1,2,4-triazol-1-yl)pentan-3-ol (PGR) was dissolved in 1,1 and 1 liter, respectively, of methanol at room temperature and was stirred until the solution was clear, approximately 20 to 60 minutes. In these examples, the injection holes were placed at approximate 8 inch intervals.

[3] = week 24, 10 g PGR in 1 liter methanol
[4] = week 56, 10 g PGR in 1 liter methanol
[5] = week 24, 20 g PGR in 1 liter methanol
[6] = week 24, 40 g PGR in 1 liter methanol
[7] = week 56, 20 g PGR in 1 liter methanol
[8] = week 56, 40 g PGR in 1 liter methanol

Compound: CC(C)(C)[C@@H](O)[C@@H](Cc1ccc(Cl)cc1)n1cncn1 (racemic) [Formula (II), (2RS,3RS)-1-(4-chlorophenyl-4,4-dimethyl-2-1,2,4-triazol-1-yl)pentan-3-ol]
- µg in solution ([1]; 0 hours): 200 µg
- kd (ratio of chemical bound to wood:chemical in solution) ([1]; 0.5 hours): 0.7
- µg in solution ([1]; 0.5 hours): 116 µg
- kd (ratio of chemical bound to wood:chemical in solution) ([1]; 1 hour): 1.4
- µg in solution ([1]; 1 hour): 84 µg
- kd (ratio of chemical bound to wood:chemical in solution) ([1]; 2 hours): 1.5
- µg in solution ([1]; 2 hours): 81 µg
- kd (ratio of chemical bound to wood:chemical in solution) ([1]; 4 hours): 1.7
- µg in solution ([1]; 4 hours): 75 µg
- kd (ratio of chemical bound to wood:chemical in solution) ([1]; 8 hours): 1.8
- µg in solution ([1]; 8 hours): 72 µg
- kd (ratio of chemical bound to wood:chemical in solution) ([1]; 24 hours): 1.7
- µg in solution ([1]; 24 hours): 74 µg
- kd (ratio of chemical bound to wood:chemical in solution) ([1]; 48 hours): 1.8
- µg in solution ([1]; 48 hours): 76 µg
- solubility at 4 h ([2]; in water alone): 35 µg/mL
- solubility at 4 h ([2]; organic solvent or mixture, 10 % Methanol in water): 53 µg/mL
- solubility at 4 h ([2]; organic solvent or mixture, 20 % Methanol in water): 89 µg/mL
- solubility at 4 h ([2]; organic solvent or mixture, 50 % Methanol in water): 1200 µg/mL
- solubility at 4 h ([2]; organic solvent or mixture, 100 % Methanol): 56000 µg/mL
- solubility at 4 h ([2]; water (0% methanol), organic solvent or mixture, 0 % Methanol): 35 µg/mL
- Growth, % of Control (Malus communis (Apple); 2 g PGR in 1 liter Water, total inj. vol. not given): 84 % of Control
- Growth, % of Control (Malus communis (Apple); 2.5 g PGR in 1 liter Ethanol, total inj. vol. 200 ml): 58 % of Control
- Growth, % of Control (Malus communis (Apple); 5 g PGR in 1 liter Ethanol, total inj. vol. 100 ml): 59 % of Control
- Growth, % of Control (Malus communis (Apple); 5 g PGR in 1 liter Ethanol, total inj. vol. 200 ml): 58 % of Control
- Growth, % of Control (Malus communis (Apple); 10 g PGR in 1 liter Ethanol, total inj. vol. 50 ml): 70 % of Control
- Growth, % of Control (Malus communis (Apple); 10 g PGR in 1 liter Ethanol, total inj. vol. 100 ml): 76 % of Control
- Growth, % of Control (Malus communis (Apple); 10 g PGR in 1 liter Ethanol, total inj. vol. 200 ml): 56 % of Control
- Growth, % of Control (Malus communis (Apple); 10 g PGR in 1 liter Methanol, total inj. vol. 200 ml): 59 % of Control
- Growth, % of Control (Malus communis (Apple); 10 g PGR in 1 liter Water, total inj. vol. 50 ml): 100 % of Control
- Growth, % of Control (Malus communis (Apple); 10 g PGR in 1 liter Water, total inj. vol. 100 ml): 103 % of Control
- Growth, % of Control (Malus communis (Apple); 20 g PGR in 1 liter Ethanol, total inj. vol. 25 ml): 79 % of Control
- Growth, % of Control (Malus communis (Apple); 20 g PGR in 1 liter Ethanol, total inj. vol. 50 ml): 82 % of Control
- Growth, % of Control (Malus communis (Apple); 20 g PGR in 1 liter Ethanol, total inj. vol. 100 ml): 60 % of Control
- Growth, % of Control (Malus communis (Apple); 20 g PGR in 1 liter Methanol, total inj. vol. 100 ml): 60 % of Control
- Growth, % of Control (Malus communis (Apple); 40 g PGR in 1 liter Ethanol, total inj. vol. 25 ml): 77 % of Control
- Growth, % of Control (Malus communis (Apple); 40 g PGR in 1 liter Ethanol, total inj. vol. 50 ml): 72 % of Control
- Growth, % of Control (Malus communis (Apple); 40 g PGR in 1 liter Methanol, total inj. vol. 50 ml): 76 % of Control
- Growth, % of Control (Malus communis (Apple); 40 g PGR in 1 liter Methanol, total inj. vol. 100 ml): 52 % of Control
- Growth, % of Control (Malus communis (Apple); 50 g PGR in 1 liter Ethanol, total inj. vol. 10 ml): 90 % of Control
- Growth, % of Control (Malus communis (Apple); 80 g PGR in 1 liter Methanol, total inj. vol. 25 ml): 68 % of Control
- Retardation Rating (R) (Water Oak; [3]): 5 (5 = 81-100% retardation)
- Uniformity Rating (U) (Water Oak; [3]): 5
- Retardation Rating (R) (Water Oak; [4]): 5 (5 = 81-100% retardation)
- Uniformity Rating (U) (Water Oak; [4]): 5
- Retardation Rating (R) (Willow Oak; [5]): 4 (4 = 61-80% retardation)
- Uniformity Rating (U) (Willow Oak; [5]): 3
- Retardation Rating (R) (Willow Oak; [6]): 4 (4 = 61-80% retardation)
- Uniformity Rating (U) (Willow Oak; [6]): 4
- Retardation Rating (R) (Willow Oak; [7]): 5 (5 = 81-100% retardation)
- Uniformity Rating (U) (Willow Oak; [7]): 5
- Retardation Rating (R) (Willow Oak; [8]): 4 (4 = 61-80% retardation)
- Uniformity Rating (U) (Willow Oak; [8]): 4
- Retardation Rating (R) (Sycamore; [5]): 3 (3 = 41-60% retardation)
- Uniformity Rating (U) (Sycamore; [5]): 4
- Retardation Rating (R) (Sycamore; [7]): 4 (4 = 61-80% retardation)
- Uniformity Rating (U) (Sycamore; [7]): 4
